Measured values reported in patent publication US20240409585A1, “MACROCYCLIC IMMUNOMODULATORS” (priority 2021, published 2024).
Bridge positions count the residues as written; N and C are the ends. Square brackets hold non-standard residues; d marks the D form. Peptide text beside a SMILES is read from it. Phe(4-(4-pyridyl)) = N[C@@H](Cc1ccc(-c2ccncc2)cc1)C(=O)O; dPhe(3-NO2) = N[C@H](Cc1cccc([N+](=O)[O-])c1)C(=O)O; dPhe(3-CF3) = N[C@H](Cc1cccc(C(F)(F)F)c1)C(=O)O; Phe(4-COOH) = N[C@@H](Cc1ccc(C(=O)O)cc1)C(=O)O; Trp(6-F) = N[C@@H](Cc1c[nH]c2cc(F)ccc12)C(=O)O; Phe(4-CH2NH2) = NCc1ccc(C[C@H](N)C(=O)O)cc1; dPhe(2,4-F2) = N[C@H](Cc1ccc(F)cc1F)C(=O)O; Bip = N[C@@H](Cc1ccc(-c2ccccc2)cc1)C(=O)O; Phe(4-Cl) = N[C@@H](Cc1ccc(Cl)cc1)C(=O)O; Phe(4-NH2) = Nc1ccc(C[C@H](N)C(=O)O)cc1; Phe(4-F) = N[C@@H](Cc1ccc(F)cc1)C(=O)O; 4Pal = N[C@@H](Cc1ccncc1)C(=O)O; dCha = N[C@H](CC1CCCCC1)C(=O)O; NMeA = CN[C@@H](C)C(=O)O

What follows are molecules tested against T1, PE-labeled human PD-L1-Ig binding to Jurkat cell line over-expressing human PD-1 (Jurkat-PD-1) (Homo sapiens, UniProt Q15116) (assay: Jurkat-PD-1 Cell Binding High-Content Screening Assay (CBA): Method 1). Details: Jurkat-hPD-1 cells, PE-labeled PD-L1-Ig 20 nM final; read-out: Jurkat HPDL1 PD1 IC50 (uM) (Method 1).
T1 construct: expressed in transfected cells; host or cells: Jurkat
T1 sequence (Q15116 25-288): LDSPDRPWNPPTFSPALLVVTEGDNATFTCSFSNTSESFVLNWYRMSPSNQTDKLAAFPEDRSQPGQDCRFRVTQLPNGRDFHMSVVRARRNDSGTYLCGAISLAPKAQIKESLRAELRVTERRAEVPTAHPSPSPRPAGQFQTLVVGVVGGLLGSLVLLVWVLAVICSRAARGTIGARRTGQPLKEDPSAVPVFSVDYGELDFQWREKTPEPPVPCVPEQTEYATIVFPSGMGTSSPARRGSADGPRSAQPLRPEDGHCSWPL

| Structure (SMILES) | IC50 [µM] |
| --- | --- |
| CC(C)C[C@@H]1NC(=O)[C@H](CCCNC(=N)N)NC(=O)[C@@H](Cc2ccc(F)cc2F)NC(=O)[C@H](C)N(C)C(=O)[C@H](CCCNC(=N)N)NC(=O)[C@H](Cc2ccc(-c3ccccc3)cc2)NC(=O)[C@H](C(C)C)NC(=O)[C@H](Cc2c[nH]c3ccccc23)NC(=O)[C@H](CC(=O)O)NC(=O)[C@H](Cc2ccc(O)cc2)NC(=O)[C@H](Cc2ccccc2)NC(=O)CSC[C@@H](C(=O)N[C@@H](C)C(N)=O)NC(=O)[C@H]([C@@H](C)O)NC(=O)[C@H](C(C)C)NC1=O [Compound 1073] ({CH2CO}-FYDWV[Bip]R[NMeA][dPhe(2,4-F2)]RLVTCA-NH2; thioether N-14) | 0.13 |
| CC(C)C[C@@H]1NC(=O)[C@H](CCCNC(=N)N)NC(=O)[C@@H](Cc2cccc([N+](=O)[O-])c2)NC(=O)[C@H](C)N(C)C(=O)[C@H](CCCNC(=N)N)NC(=O)[C@H](Cc2ccc(-c3ccccc3)cc2)NC(=O)[C@H](C(C)C)NC(=O)[C@H](Cc2c[nH]c3ccccc23)NC(=O)[C@H](CC(=O)O)NC(=O)[C@H](Cc2ccc(O)cc2)NC(=O)[C@H](Cc2ccccc2)NC(=O)CSC[C@@H](C(=O)N[C@@H](C)C(N)=O)NC(=O)[C@H]([C@@H](C)O)NC(=O)[C@H](C(C)C)NC1=O [Compound 1074] ({CH2CO}-FYDWV[Bip]R[NMeA][dPhe(3-NO2)]RLVTCA-NH2; thioether N-14) | 0.11 |
| CC(C)C[C@@H]1NC(=O)[C@H](CCCNC(=N)N)NC(=O)[C@@H](Cc2cccc(C(F)(F)F)c2)NC(=O)[C@H](C)N(C)C(=O)[C@H](CCCNC(=N)N)NC(=O)[C@H](Cc2ccc(-c3ccccc3)cc2)NC(=O)[C@H](C(C)C)NC(=O)[C@H](Cc2c[nH]c3ccccc23)NC(=O)[C@H](CC(=O)O)NC(=O)[C@H](Cc2ccc(O)cc2)NC(=O)[C@H](Cc2ccccc2)NC(=O)CSC[C@@H](C(=O)N[C@@H](C)C(N)=O)NC(=O)[C@H]([C@@H](C)O)NC(=O)[C@H](C(C)C)NC1=O [Compound 1075] ({CH2CO}-FYDWV[Bip]R[NMeA][dPhe(3-CF3)]RLVTCA-NH2; thioether N-14) | 0.55 |
| CC(C)C[C@@H]1NC(=O)[C@H](CCCNC(=N)N)NC(=O)[C@@H](CC2CCCCC2)NC(=O)[C@H](C)N(C)C(=O)[C@H](CCCNC(=N)N)NC(=O)[C@H](Cc2ccc(-c3ccccc3)cc2)NC(=O)[C@H](C(C)C)NC(=O)[C@H](Cc2c[nH]c3ccccc23)NC(=O)[C@H](CC(=O)O)NC(=O)[C@H](Cc2ccc(O)cc2)NC(=O)[C@H](Cc2ccccc2)NC(=O)CSC[C@@H](C(=O)N[C@@H](C)C(N)=O)NC(=O)[C@H]([C@@H](C)O)NC(=O)[C@H](C(C)C)NC1=O [Compound 1076] ({CH2CO}-FYDWV[Bip]R[NMeA][dCha]RLVTCA-NH2; thioether N-14) | 0.05 |
| CC(C)C[C@@H]1NC(=O)[C@H](CCCNC(=N)N)NC(=O)[C@@H](CC(C)C)NC(=O)[C@H](C)N(C)C(=O)[C@H](CCCNC(=N)N)NC(=O)[C@H](Cc2ccc(-c3ccccc3)cc2)NC(=O)[C@H](C(C)C)NC(=O)[C@H](Cc2c[nH]c3ccccc23)NC(=O)[C@H](CC(=O)O)NC(=O)[C@H](Cc2ccc(C(=O)O)cc2)NC(=O)[C@H](Cc2ccncc2)NC(=O)CSC[C@@H](C(=O)N[C@@H](C)C(N)=O)NC(=O)[C@H]([C@@H](C)O)NC(=O)[C@H](C(C)C)NC1=O [Compound 1077] ({CH2CO}-[4Pal][Phe(4-COOH)]DWV[Bip]R[NMeA][dL]RLVTCA-NH2; thioether N-14) | 0.05 |
| CC(C)C[C@@H]1NC(=O)[C@H](CCCNC(=N)N)NC(=O)[C@@H](CC(C)C)NC(=O)[C@H](C)N(C)C(=O)[C@H](CCCNC(=N)N)NC(=O)[C@H](Cc2ccc(-c3ccncc3)cc2)NC(=O)[C@H](C(C)C)NC(=O)[C@H](Cc2c[nH]c3ccccc23)NC(=O)[C@H](CC(=O)O)NC(=O)[C@H](Cc2ccc(O)cc2)NC(=O)[C@H](Cc2ccccc2)NC(=O)CSC[C@@H](C(=O)N[C@@H](C)C(N)=O)NC(=O)[C@H]([C@@H](C)O)NC(=O)[C@H](C(C)C)NC1=O [Compound 1078] ({CH2CO}-FYDWV[Phe(4-(4-pyridyl))]R[NMeA][dL]RLVTCA-NH2; thioether N-14) | 0.48 |
| CC(C)C[C@@H]1NC(=O)[C@H](CCCNC(=N)N)NC(=O)[C@@H](CC(C)C)NC(=O)[C@H](C)N(C)C(=O)[C@H](CCCNC(=N)N)NC(=O)[C@H](Cc2ccc(-c3ccccc3)cc2)NC(=O)[C@H](C(C)C)NC(=O)[C@H](Cc2c[nH]c3cc(F)ccc23)NC(=O)[C@H](CC(=O)O)NC(=O)[C@H](Cc2ccc(O)cc2)NC(=O)[C@H](Cc2ccccc2)NC(=O)CSC[C@@H](C(=O)N[C@@H](C)C(N)=O)NC(=O)[C@H]([C@@H](C)O)NC(=O)[C@H](C(C)C)NC1=O [Compound 1079] ({CH2CO}-FYD[Trp(6-F)]V[Bip]R[NMeA][dL]RLVTCA-NH2; thioether N-14) | 0.25 |

Other lines, results leading:

| IC50 [µM] | Structure (SMILES) |
| --- | --- |
| 0.14 | CC(C)C[C@@H]1NC(=O)[C@H](CCCNC(=N)N)NC(=O)[C@@H](CC(C)C)NC(=O)[C@H](C)N(C)C(=O)[C@H](CCCNC(=N)N)NC(=O)[C@H](Cc2ccc(-c3ccccc3)cc2)NC(=O)[C@H](C(C)C)NC(=O)[C@H](Cc2c[nH]c3ccccc23)NC(=O)[C@H](CC(=O)O)NC(=O)[C@H](Cc2ccc(F)cc2)NC(=O)[C@H](Cc2ccccc2)NC(=O)CSC[C@@H](C(=O)N[C@@H](C)C(N)=O)NC(=O)[C@H]([C@@H](C)O)NC(=O)[C@H](C(C)C)NC1=O [Compound 1080] ({CH2CO}-F[Phe(4-F)]DWV[Bip]R[NMeA][dL]RLVTCA-NH2; thioether N-14) |
| 0.06 | CC(C)C[C@@H]1NC(=O)[C@H](CCCNC(=N)N)NC(=O)[C@@H](CC(C)C)NC(=O)[C@H](C)N(C)C(=O)[C@H](CCCNC(=N)N)NC(=O)[C@H](Cc2ccc(-c3ccccc3)cc2)NC(=O)[C@H](C(C)C)NC(=O)[C@H](Cc2c[nH]c3ccccc23)NC(=O)[C@H](CC(=O)O)NC(=O)[C@H](Cc2ccc(Cl)cc2)NC(=O)[C@H](Cc2ccccc2)NC(=O)CSC[C@@H](C(=O)N[C@@H](C)C(N)=O)NC(=O)[C@H]([C@@H](C)O)NC(=O)[C@H](C(C)C)NC1=O [Compound 1081] ({CH2CO}-F[Phe(4-Cl)]DWV[Bip]R[NMeA][dL]RLVTCA-NH2; thioether N-14) |
| 0.04 | CC(C)C[C@@H]1NC(=O)[C@H](CCCNC(=N)N)NC(=O)[C@@H](CC(C)C)NC(=O)[C@H](C)N(C)C(=O)[C@H](CCCNC(=N)N)NC(=O)[C@H](Cc2ccc(-c3ccccc3)cc2)NC(=O)[C@H](C(C)C)NC(=O)[C@H](Cc2c[nH]c3ccccc23)NC(=O)[C@H](CC(=O)O)NC(=O)[C@H](Cc2ccc(N)cc2)NC(=O)[C@H](Cc2ccccc2)NC(=O)CSC[C@@H](C(=O)N[C@@H](C)C(N)=O)NC(=O)[C@H]([C@@H](C)O)NC(=O)[C@H](C(C)C)NC1=O [Compound 1082] ({CH2CO}-F[Phe(4-NH2)]DWV[Bip]R[NMeA][dL]RLVTCA-NH2; thioether N-14) |
| 0.25 | CC(C)C[C@@H]1NC(=O)[C@H](CCCNC(=N)N)NC(=O)[C@@H](CC(C)C)NC(=O)[C@H](C)N(C)C(=O)[C@H](CCCNC(=N)N)NC(=O)[C@H](Cc2ccc(-c3ccccc3)cc2)NC(=O)[C@H](C(C)C)NC(=O)[C@H](Cc2c[nH]c3ccccc23)NC(=O)[C@H](CC(=O)O)NC(=O)[C@H](Cc2ccc(CN)cc2)NC(=O)[C@H](Cc2ccccc2)NC(=O)CSC[C@@H](C(=O)N[C@@H](C)C(N)=O)NC(=O)[C@H]([C@@H](C)O)NC(=O)[C@H](C(C)C)NC1=O [Compound 1083] ({CH2CO}-F[Phe(4-CH2NH2)]DWV[Bip]R[NMeA][dL]RLVTCA-NH2; thioether N-14) |
